Series [1] can be described thus: Water solubility by slow-stir method. The note with it: for solubility: reagent grade water in sealed all-glass aspirator bottles. It is filed as physicochemical. As to the method:
The slow-stir water solubility method uses glass vessels, at least one liter in volume, to which reagent grade water is added. The typical bottle contains a sampling port or spigot at the bottom of the vessel and is filled to a water column height approximating that of the vessel’s tapered shoulders. Slow stir systems are depicted in Additional file 1: Figure S1. This configuration minimizes headspace but maximizes the test substance—water interface. […] The top opening of the vessels is tightly sealed to minimize volatile loss of neat test substance from the system. The excess test substance provides a supply of free product to dissolve and, in the case of volatile substances, evaporate into the headspace. The system is mixed with a minimal vortex imparting just enough energy to move the small dollop of test substance and impart a slight dimple (< 0.5 cm) below the water surface. Care is taken to mix slowly so as to avoid emulsifying the test substance. Water samples are withdrawn from the bottom sampling port of the vessel, extracted and analyzed. As necessary, specific sampling techniques for dissolved volatile organics are used including: the use of gas tight syringes, minimizing sample transfer, and reduced storage duration prior to analysis. Sampling from slow-stir systems occurs over daily or weekly intervals until analysis indicates equilibrium has been reached representing maximum water solubility. Larger test (i.e. 8–20 L) vessels are generally used when the associated analytical method requires extraction of large water sample volumes and also provide a greater surface-to-volume ratio which can be advantageous, especially for surface active compounds. For substances where the solubility is extremely low (i.e. < 10 µg/L) lengthy equilibration periods (weeks-months) may be needed.
The slow-stir water solubility method is not currently cited in existing regulatory guidelines though a number of publications describe its application to difficult-to-test liquid compounds [11–14]. In this ring test, each laboratory employed all glass aspirator bottles with sampling spigots located toward the bottom of the vessels. Water volumes ranged from 0.8 to 4 L with initial vessel headspace accounting for 5 to 20% of the entire vessel volume. n-Hexylcyclohexane loadings ranged from 0.4 to 400 mg/L. The vessels were sealed with Teflon™, polypropylene, glass or high density polyethylene screw plugs or stoppers. Water was stirred at a rate imparting little to no visible vortex and stirring rates were estimated between 80 and 250 rpm. The specific experimental parameters used by each of the participating labs in applying the slow-stir method are listed in Additional file 1: Table S2.

A short description of series [2]: Water solubility by column elution (generator column) method, OECD 105. Type of series: physicochemical. The text has this: The column elution method as applied in this ring test is described in several regulatory test guidelines. The typical generator column consists of two concentric glass columns. The inner, narrow column is packed with test substance. The solid test substance is typically dissolved in a volatile solvent which is then pre-loaded onto an inert support phase (e.g. glass beads, diatomaceous earth, chromatographic support material) by rotary evaporation to coat the support phase and then remove the solvent. Alternatively, some practitioners load the column directly with ca. 0.5 g of neat test substance which is retained with plugs of fused silica wool. The outer column provides temperature control (20 °C) as it is connected to a recirculating water bath. Reagent grade water is pumped through the inner column contacting the test substance column at a low flow rate (i.e. < 1 mL/min). The water eluate is collected, extracted and analyzed. Consecutive fractions are collected until the concentration of test substance in water plateaus indicating equilibrium water solubility has been reached. The experiment is then repeated at a flow rate approximately one-half that applied in the first trial to confirm that equilibrium has been reached. In this ring test, two of the five participating labs applied dodecahydrotriphenylene dissolved in solvent to an inert support phase. The solvent was evaporated and the support phase coated with the test compounds. The remaining three laboratories packed the columns with neat test substance. Across the five laboratories, the column flow for the first run ranged from 0.4 to 0.8 mL/min. The volume of each fraction collected for analysis ranged from 5 to 25 mL. Details of the experimental parameters used by each of the participating labs in applying the generator column method are listed in Additional file 1: Table S1.

The results in this text go back to PMC8442276, “Inter-laboratory comparison of water solubility methods applied to difficult-to-test substances” (BMC Chemistry, 2021).

In brackets after ≈: the same amount, converted by molar mass. Like-named read-outs stand apart in the source and are kept apart here. Marks after values point to notes of the source that are not given here.

Turning to `CCCCCCC1CCCCC1` [n-Hexylcyclohexane], the “Mean measured water solubility, inter-laboratory mean” value in series [1] (20 °C, mean of n = 5 labs) came out at 0.014 µg/mL. Besides, the solubility in series [1] (20 °C, mean of n = 5 labs, read-out: Mean measured water solubility, inter-laboratory mean) was 0.014 µg/mL (≈ 0.0832 µM); in series [1] (20 °C, n = 5 labs, read-out: Range of measured water solubility values across labs), 0.011 to 0.016 µg/mL (≈ 0.0654 to 0.0951 µM); in series [1] (20 °C, water, thermodynamic from solid, Laboratory B, second attempt, read-out: Mean measured Concentration (water solubility)) it was 0.012 µg/mL (≈ 0.0713 µM); in series [1] (20 °C, water, thermodynamic from solid, Laboratory E, second attempt, read-out: Mean measured Concentration (water solubility)) it was 0.016 µg/mL (≈ 0.0951 µM); in series [1] (water, thermodynamic from solid, Laboratory A, read-out: Mean measured Concentration (water solubility)), 0.015 µg/mL (≈ 0.0891 µM); in series [1] (water, thermodynamic from solid, Laboratory B, first attempt, equilibrium not demonstrated, not included in mean, read-out: Mean measured Concentration (water solubility), first attempt) it was 0.0056 µg/mL (≈ 0.0333 µM). Besides, the solubility in series [1] (water, thermodynamic from solid, Laboratory C, read-out: Mean measured Concentration (water solubility)) is 0.014 µg/mL (≈ 0.0832 µM); in series [1] (water, thermodynamic from solid, Laboratory D, read-out: Mean measured Concentration (water solubility)), 0.011 µg/mL (≈ 0.0654 µM); in series [1] (water, thermodynamic from solid, Laboratory E, first attempt, equilibrium not demonstrated, not included in mean, read-out: Mean measured Concentration (water solubility), first attempt), 0.0057 µg/mL (≈ 0.0339 µM).
With `C1CCc2c(c3c(c4c2CCCC4)CCCC3)C1` [Dodecahydrotriphenylene], the “Mean Measured Concentration (water solubility)” value in series [2] (Laboratory A, column packed directly with neat solid) is 2.8^p µg/L; in series [2] (Laboratory B, test substance on support), 3.2 µg/L; in series [2] (Laboratory C, test substance on support), 2.1 µg/L; in series [2] (Laboratory D, column packed directly with neat solid), 2.3^p µg/L; in series [2] (Laboratory E, column packed directly with neat solid, statistical outlier, not included in mean), 0.66 µg/L. In addition, the “Mean measured water solubility, inter-laboratory mean” value in series [2] (column elution, 20 °C, mean of n = 4 labs (Lab E excluded as outlier)) was found to be 0.0026 µg/mL. Moreover, the “Range of measured water solubility values across labs” value in series [2] (column elution, 20 °C, n = 4 labs) was in the range of 0.0021 to 0.0032 µg/mL.
